According to US20090054392A1, “NAPHTHYLPYRIMIDINE, NAPHTHYLPYRAZINE AND NAPHTHYLPYRIDAZINE ANALOGS AND THEIR USE AS AGONISTS OF THE WNT-BETA-CATENIN CELLULAR MESSAGING SYSTEM” (Wyeth, priority 2007, published 2009):

Tested on: Dkk1-LRP5-TCF-Luciferase
Assay: Functional Dkk1-LRP5-TCF-Luciferase Assay in U2OS Cells
Conditions: for fold induction at 2 µM / fold induction at 20 µM / EC50: Homo sapiens, U2OS; for fold induction at 2 µM: read-out: B = TCF ACTIVITY/DMSO CONTROL Fold induction @ 2.0 uM, 2.0 uM compound; for fold induction at 20 µM: read-out: C = TCF ACTIVITY/DMSO CONTROL Fold induction @ 20.0 uM, 20.0 uM compound; for A = MAX FOLD Induction/DMSO CONTROL: maximum fold induction over DMSO control

SMILES | fold induction at 2 µM | fold induction at 20 µM | A = MAX FOLD Induction/DMSO CONTROL [fold] | EC50 [µM]
CN(C)S(=O)(=O)N[C@H]1CC[C@H](Nc2nccc(-c3ccc4ccccc4c3)n2)CC1 [N,N-dimethyl-N′-(trans-4-{[4-(2-naphthyl)pyrimidin-2-yl]amino}cyclohexyl)sulfamide] | 1.65 | 1.74 |  | 
O[C@@H]1CCN([C@H]2CCN(c3nccc(-c4ccc5ccccc5c4)n3)C2)C1 [(3R,3′S)-1′-[4-(2-naphthyl)pyrimidin-2-yl]-1,3′-bipyrrolidin-3-ol] | 2.1 |  |  | 
CC(C)(C)OC(=O)NCC1CCCN(c2nccc(-c3ccc4ccccc4c3)n2)C1 (stereo not drawn) [tert-butyl ({1-[4-(2-naphthyl)pyrimidin-2-yl]piperidin-3-yl}methyl)carbamate] | 0.91 | 1.94 |  | 
NC(=O)C1CCN(c2nccc(-c3ccc4ccccc4c3)n2)CC1 [1-[4-(2-naphthyl)pyrimidin-2-yl]piperidine-4-carboxamide] | 1.62 | 1.15 | 1.660 | 
CN(c1nccc(-c2ccc3ccccc3c2)n1)C1CCNCC1 [N-methyl-4-(2-naphthyl)-N-piperidin-4-ylpyrimidin-2-amine] | 2.65 | 1.35 | 2.320 | 1.8
O=C(N[C@@H]1CCN(c2nccc(-c3ccc4ccccc4c3)n2)C1)N1CCCC1 [N-{(3R)-1-[4-(2-naphthyl)pyrimidin-2-yl]pyrrolidin-3-yl}pyrrolidine-1-carboxamide] | 1.41 | 0.27 |  | 
CCCN(C)CCN(C)[C@@H]1CCN(c2nccc(-c3ccc4ccccc4c3)n2)C1 [N,N′-dimethyl-N-{(3R)-1-[4-(2-naphthyl)pyrimidin-2-yl]pyrrolidin-3-yl}-N′-propylethane-1,2-diamine] | 3.4 |  |  | 
CN[C@@H]1CCN(c2nccc(-c3ccc4ccccc4c3)n2)C1 [(3R)—N-methyl-1-[4-(2-naphthyl)pyrimidin-2-yl]pyrrolidin-3-amine] | 1.2 |  |  | 
CN(C)[C@@H]1CCN(c2nccc(-c3ccc4ccccc4c3)n2)C1 [(3R)—N,N-dimethyl-1-[4-(2-naphthyl)pyrimidin-2-yl]pyrrolidin-3-amine] | 2.88 | 0.065 | 5.193 | 3.56
NCC1CCN(c2nccc(-c3ccc4ccccc4c3)n2)c2ccccc21 (stereo not drawn) [1-{1-[4-(2-naphthyl)pyrimidin-2-yl]-1,2,3,4-tetrahydroquinolin-4-yl}methanamine] |  |  | 1.820 | 
CC(C)(C)NC[C@@H]1CCN(c2nccc(-c3ccc4ccccc4c3)n2)C1 [2-methyl-N-({(3S)-1-[4-(2-naphthyl)pyrimidin-2-yl]pyrrolidin-3-yl}methyl)propan-2-amine] | 2.44 | 0.06 | 4.610 | 
COC(=O)N1CC[C@@H](Nc2nccc(-c3ccc4ccccc4c3)n2)C1 [methyl (3R)-3-{[4-(2-naphthyl)pyrimidin-2-yl]amino}pyrrolidine-1-carboxylate] |  | 2.35 | 1.360 | 
c1ccc2cc(-c3ccnc(N4CCN(CCCN5CCOCC5)CC4)n3)ccc2c1 [4-(3-{4-[4-(2-naphthyl)pyrimidin-2-yl]piperazin-1-yl}propyl)morpholine] | 1.29 | 0.01 |  | 
NC(=O)N1CCC(Nc2nccc(-c3ccc4ccccc4c3)n2)CC1 [4-{[4-(2-naphthyl)pyrimidin-2-yl]amino}piperidine-1-carboxamide] | 1.31 | 3.17 | 3.552 | 5.28
NCC1CCN(c2ncc(-c3ccc4ccccc4c3)cn2)CC1 [1-{1-[5-(2-naphthyl)pyrimidin-2-yl]piperidin-4-yl}methanamine] | 3.1 |  | 2.900 | 1.2
OC[C@H]1CCCN(c2nccc(-c3ccc4ccccc4c3)n2)C1 [{(3S)-1-[4-(2-naphthyl)pyrimidin-2-yl]piperidin-3-yl}methanol] | 2.8 | 1.81 | 1.840 | 
c1ccc2cc(-c3ccnc(N4CC[C@@H](N5CCNCC5)C4)n3)ccc2c1 [4-(2-naphthyl)-2-[(3R)-3-piperazin-1-ylpyrrolidin-1-yl]pyrimidine] | 3.44 |  | 2.510 | 
NC1CCCN(c2nccc(-c3ccc4ccccc4c3)n2)CC1 (stereo not drawn) [1-[4-(2-naphthyl)pyrimidin-2-yl]azepan-4-amine] | 1.95 |  |  | 
CCOC(=O)N(CCN1CCN(c2nccc(-c3ccc4ccccc4c3)n2)CC1)C(=O)OCC [diethyl (2-{4-[4-(2-naphthyl)pyrimidin-2-yl]piperazin-1-yl}ethyl)imidodicarbonate] | 1.72 |  |  | 

SMILES | fold induction at 2 µM | fold induction at 20 µM | A = MAX FOLD Induction/DMSO CONTROL [fold] | EC50 [µM]
O=CC1CCN(c2nccc(-c3ccc4ccccc4c3)n2)CC1 [1-[4-(2-naphthyl)pyrimidin-2-yl]piperidine-4-carbaldehyde] | 1.51 | 0.25 |  | 
O[C@@H]1CCCN(CC2CCN(c3nccc(-c4ccc5ccccc5c4)n3)C2)C1 (stereo partly drawn) [(3R)-1-({1-[4-(2-naphthyl)pyrimidin-2-yl]pyrrolidin-3-yl}methyl)piperidin-3-ol] | 2.34 | 0.01 | 3.745 | 1.03
OCC1CCN(c2nccc(-c3ccc4ccccc4c3)n2)C1 (stereo not drawn) [{1-[4-(2-naphthyl)pyrimidin-2-yl]pyrrolidin-3-yl}methanol] | 2.13 | 1.42 | 1.975 | 0.925
O=C1CCCN1CC1CCN(c2nccc(-c3ccc4ccccc4c3)n2)CC1 [1-({1-[4-(2-naphthyl)pyrimidin-2-yl]piperidin-4-yl}methyl)pyrrolidin-2-one] | 1.33 | 0.81 |  | 
CCN(CCO)C[C@@H]1CCN(c2nccc(-c3ccc4ccccc4c3)n2)C1 [2-[ethyl({(3S)-1-[4-(2-naphthyl)pyrimidin-2-yl]pyrrolidin-3-yl}methyl)amino]ethanol] | 3.48 | 0.04 | 3.540 | 
CC1(O)CCN(c2nccc(-c3ccc4ccccc4c3)n2)CC1 [4-methyl-1-[4-(2-naphthyl)pyrimidin-2-yl]piperidin-4-ol] |  | 1.09 |  | 
CC(C)(C)OC(=O)NCC1CCN(c2nccc(-c3ccc4ccccc4c3)n2)C1 (stereo not drawn) [tert-butyl ({1-[4-(2-naphthyl)pyrimidin-2-yl]pyrrolidin-3-yl}methyl)carbamate] | 1.09 | 0.17 |  | 
CN(C)S(=O)(=O)N1CC[C@@H](Nc2nccc(-c3ccc4ccccc4c3)n2)C1 [(3R)—N,N-dimethyl-3-{[4-(2-naphthyl)pyrimidin-2-yl]amino}pyrrolidine-1-sulfonamide] |  | 2.31 | 2.510 | 3.16
N=C(N)NCC1CCN(c2nccc(-c3ccc4ccccc4c3)n2)CC1 [N-({1-[4-(2-naphthyl)pyrimidin-2-yl]piperidin-4-yl}methyl)guanidine] | 1.27 | 0.02 |  | 
CCNC(=O)N1CC[C@@H](Nc2nccc(-c3ccc4ccccc4c3)n2)C1 [(3R)—N-ethyl-3-{[4-(2-naphthyl)pyrimidin-2-yl]amino}pyrrolidine-1-carboxamide] |  | 2.01 | 1.460 | 
CS(=O)(=O)N1CC[C@@H](Nc2nccc(-c3ccc4ccccc4c3)n2)C1 [N-[(3R)-1-(methylsulfonyl)pyrrolidin-3-yl]-4-(2-naphthyl)pyrimidin-2-amine] |  | 3.46 | 3.380 | 3.55
CS(=O)(=O)NCC1CCN(c2nccc(-c3ccc4ccccc4c3)n2)C1 (stereo not drawn) [N-({1-[4-(2-naphthyl)pyrimidin-2-yl]pyrrolidin-3-yl}methyl)methanesulfonamide] | 0.88 | 1.63 |  | 
CN(C)S(=O)(=O)N1CC(CNc2nccc(-c3ccc4ccccc4c3)n2)C1 [N,N-dimethyl-3-({[4-(2-naphthyl)pyrimidin-2-yl]amino}methyl)azetidine-1-sulfonamide] | 1.47 | 1.14 |  | 
COC(=O)[C@@H](NC(=O)OC(C)(C)C)C1CCN(c2nccc(-c3ccc4ccccc4c3)n2)CC1 [methyl (2S)-[(tert-butoxycarbonyl)amino]{1-[4-(2-naphthyl)pyrimidin-2-yl]piperidin-4-yl}acetate] |  | 0.7 |  | 
c1ccc2cc(-c3ccnc(N4CCCCCC4)n3)ccc2c1 [1-[4-(2-naphthyl)pyrimidin-2-yl]azepane] | 1.54 |  |  | 
O[C@H]1CCCN([C@H]2CCN(c3nccc(-c4ccc5ccccc5c4)n3)C2)C1 [(3S)-1-{(3S)-1-[4-(2-naphthyl)pyrimidin-2-yl]pyrrolidin-3-yl}piperidin-3-ol] |  |  |  | 0.93
COC(=O)N[C@H]1CCN(c2nccc(-c3ccc4ccccc4c3)n2)C1 [methyl {(3S)-1-[4-(2-naphthyl)pyrimidin-2-yl]pyrrolidin-3-yl}carbamate] | 1.03 | 1.63 |  | 
CN(C)[C@@H]1CCN(C(=O)[C@@H]2CCCN2c2nccc(-c3ccc4ccccc4c3)n2)C1 [(3R)—N,N-dimethyl-1-{1-[4-(2-naphthyl)pyrimidin-2-yl]-L-prolyl}pyrrolidin-3-amine] | 1.1 | 4.43 | 2.335 | 
CN(C)S(=O)(=O)NC1CCCN(c2nccc(-c3ccc4ccccc4c3)n2)CC1 (stereo not drawn) [N,N-dimethyl-N′-{1-[4-(2-naphthyl)pyrimidin-2-yl]azepan-4-yl}sulfamide] | 1.12 | 1.01 |  | 
